Assay results taken from article PMC6600263, “Neuroprotective Effects of Red Ginseng Saponins in Scopolamine-Treated Rats and Activity Screening Based on Pharmacokinetics” (Molecules, 2019).
Read-outs that look alike come from different tables or passages of the source.

Legend:
[1] = pharmacokinetics of 16 ginsenosides in rat plasma after oral administration of RGS; type: in vivo; conditions: for Cmax / MRT / half-life / Tmax / C Max / T1/2 / T Max: SD, rat, po, 100 mg/kg
Experimental: The SD rats were randomly allocated into two groups, i.e., normal group and SA-treated group.
Blood samples were collected from the postocular vein at 0.083, 0.25, 0.5, 1, 2, 3, 4, 6, 8, 12 and 24 h after SA injection. Blood sample immediately was centrifuged at 18,000 rpm for 10 min. Plasma was withdrawn (0.15 mL) and diluted with 0.3 mL of acetonitrile and 20 µL of the IS (6 µg/mL). After 30 min, the mixture was clarified by centrifugation at 18,000 rpm for 10 min at 4 °C. The supernatant was dried under a stream of N2, and the residue was dissolved in 0.1 mL of methanol and stored at −20 °C for further analysis.
The UPLC-MS/MS system (Waters Xeve TQ, Waters, Cork, Ireland) with a column C18 (ACQUITY, 1.7 μm, 2.1 × 50 mm, Waters, Cork, Ireland) were adopted at 35 °C. Water (A) and acetonitrile (B) were used as mobile phases at a flow rate of 0.4 mL/min. The treatment of elution was performed according to following pattern: 10% B for 0–5.0 min; 10→15% B for 5.0–8.0 min; 15→25% B for 8.0–12.0 min; 25→40% for 12.0–20.0 min; 40→50% B for 20.0–25.0 min; 50→65% B for 25.0–30.0 min. With regard to mass detection, the negative mode of electrospray ionization source was adopted. The optimized parameters of multiple reactions monitoring (MRM) system including collision energy, Q1 Pre Bias, Q3 Pre Bias, collision energy and MRM transition of the 16 ginsenosides are shown in Table 1.
Based on a non-compartmental method, WinNonlin software (Phoenix, version 6.1) was employed to calculate the pharmacokinetic parameters. The statistical difference between groups was analyzed by One-Way ANOVA analysis using SPSS Version 17.0. (SPSS Inc., Chicago, IL, USA). The difference between groups was regarded significant when p < 0.05. We first normalized the pharmacokinetic data and then visualized them based on principal component analysis (PCA).

[2] = tested on: scopolamine-induced learning ability impairment; design: method as in PMID 24503167; conditions: rats; cited from earlier work
[3] = plasma, model (scopolamine 1 mg/kg i.p.-treated) rats, oral RGS single dose 100 mg/kg, plasma, mean ± S.D., n = 5, read-out: C Max
[4] = plasma, model (scopolamine 1 mg/kg i.p.-treated) rats, oral RGS single dose 100 mg/kg, plasma, mean ± S.D., n = 5, read-out: MRT
[5] = plasma, model (scopolamine 1 mg/kg i.p.-treated) rats, oral RGS single dose 100 mg/kg, plasma, mean ± S.D., n = 5, read-out: T1/2 (converted)
[6] = plasma, model (scopolamine 1 mg/kg i.p.-treated) rats, oral RGS single dose 100 mg/kg, plasma, mean ± S.D., n = 5, read-out: T Max
[7] = plasma, normal rats, oral RGS single dose 100 mg/kg, plasma, mean ± S.D., n = 5, read-out: C Max
[8] = plasma, normal rats, oral RGS single dose 100 mg/kg, plasma, mean ± S.D., n = 5, read-out: MRT
[9] = plasma, normal rats, oral RGS single dose 100 mg/kg, plasma, mean ± S.D., n = 5, read-out: T1/2 (converted)
[10] = plasma, normal rats, oral RGS single dose 100 mg/kg, plasma, mean ± S.D., n = 5, read-out: T Max
[11] = model (scopolamine 1 mg/kg i.p.-treated) rats, oral RGS single dose 100 mg/kg, plasma, mean ± S.D., n = 5
[12] = normal rats, oral RGS single dose 100 mg/kg, plasma, mean ± S.D., n = 5
[13] = in vivo, model (scopolamine 1 mg/kg i.p.-treated) rats, oral RGS single dose 100 mg/kg, plasma, mean ± S.D., n = 5, read-out: C Max
[14] = in vivo, model (scopolamine 1 mg/kg i.p.-treated) rats, oral RGS single dose 100 mg/kg, plasma, mean ± S.D., n = 5, read-out: MRT
[15] = in vivo, model (scopolamine 1 mg/kg i.p.-treated) rats, oral RGS single dose 100 mg/kg, plasma, mean ± S.D., n = 5, read-out: T1/2 (converted)
[16] = in vivo, model (scopolamine 1 mg/kg i.p.-treated) rats, oral RGS single dose 100 mg/kg, plasma, mean ± S.D., n = 5, read-out: T Max
[17] = in vivo, normal rats, oral RGS single dose 100 mg/kg, plasma, mean ± S.D., n = 5, read-out: C Max
[18] = in vivo, normal rats, oral RGS single dose 100 mg/kg, plasma, mean ± S.D., n = 5, read-out: MRT
[19] = in vivo, normal rats, oral RGS single dose 100 mg/kg, plasma, mean ± S.D., n = 5, read-out: T1/2 (converted)
[20] = in vivo, normal rats, oral RGS single dose 100 mg/kg, plasma, mean ± S.D., n = 5, read-out: T Max

Row | SMILES | Cmax [1, 3] [ng/g] | MRT [1, 4] [h] | half-life [1, 5] [h] | Tmax [1, 6] [h] | Cmax [1, 7] [ng/g] | MRT [1, 8] [h] | half-life [1, 9] [h] | Tmax [1, 10] [h] | AUC 0-t [1, 11] [ng·h/g] | AUC 0-t [1, 12] [ng·h/g] | C Max ([1]; in vivo) [ng/g] | MRT ([1]; in vivo) [h] | T1/2 ([1]; in vivo) [h] | Cmax ([1]; in vivo, C Max) [ng/g] | MRT ([1]; in vivo, MRT) [h] | half-life ([1]; in vivo, T1/2) [h] | other results
1 | CC(C)=CCCC(C)(OC1OC(COC2OC(CO)C(O)C(O)C2O)C(O)C(O)C1O)C1CCC2(C)C1C(O)CC1C3(C)CCC(OC4OC(CO)C(O)C(O)C4OC4OC(CO)C(O)C(O)C4O)C(C)(C)C3CCC12C (centres unmarked) [Rb1] | 34.8 ± 2.7 | 6.5 ± 1.5 | 4.8 ± 1.1 | 4.1 ± 0.8 | 35.2 ± 4.9 | 6.2 ± 1.8 | 4.3 ± 0.8 | 4.6 ± 1.1 | 298.9 ± 11.7 | 255.6 ± 7.4 | – | – | – | – | – | – | effect on scopolamine-induced learning ability impairment [2]: do not
2 | CC(C)=CCCC(C)(OC1OC(COC2OCC(O)C(O)C2O)C(O)C(O)C1O)C1CCC2(C)C1C(O)CC1C3(C)CCC(OC4OC(CO)C(O)C(O)C4OC4OC(CO)C(O)C(O)C4O)C(C)(C)C3CCC12C (centres unmarked) [Rb2] | 17.2 ± 2.1 | 7.9 ± 1.2 | 6.9 ± 1.2 | 1.5 ± 0.2 | 18.5 ± 2.5 | 8.6 ± 2.1 | 6.5 ± 1.5 | 1.5 ± 0.2 | 90.3 ± 8.2 | 89.6 ± 9.3 | – | – | – | – | – | – | –
3 | CC(C)=CCCC(C)(OC1OC(COC2OC(CO)C(O)C2O)C(O)C(O)C1O)C1CCC2(C)C1C(O)CC1C3(C)CCC(OC4OC(CO)C(O)C(O)C4OC4OC(CO)C(O)C(O)C4O)C(C)(C)C3CCC12C (centres unmarked) [Rc] | 21 ± 4.8 | 8.9 ± 2.2 | 7.9 ± 3.1 | 1.5 ± 0.5 | 19.1 ± 2.9 | 9.6 ± 1.5 | 8.9 ± 3.2 | 1.5 ± 3.2 | 109.8 ± 10.2 | 102.3 ± 20.2 | – | – | – | – | – | – | –
4 | CC(C)=CCCC(C)(OC1OC(CO)C(O)C(O)C1O)C1CCC2(C)C1C(O)CC1C3(C)CCC(OC4OC(CO)C(O)C(O)C4OC4OC(CO)C(O)C(O)C4O)C(C)(C)C3CCC12C (centres unmarked) [Rd] | 45.6 ± 2.9 | 7.7 ± 1.3 | 6.2 ± 1.9 | 2 ± 0.8 | 47.5 ± 2.6 | 8.6 ± 1.2 | 5.5 ± 5.6 | 1.5 ± 0.4 | 331.2 ± 11.2 | 321.5 ± 9.1 | – | – | – | – | – | – | effect on scopolamine-induced learning ability impairment [2]: do not
5 | CC(C)=CCCC(C)(OC1OC(CO)C(O)C(O)C1O)C1CCC2(C)C1C(O)CC1C3(C)CCC(O)C(C)(C)C3C(OC3OC(CO)C(O)C(O)C3OC3OC(C)C(O)C(O)C3O)CC12C (centres unmarked) [Re] | 24.9 ± 6.9 | 8.6 ± 1.1 | 11.3 ± 2.9 | 0.5 ± 0.1 | 25.6 ± 2.6 | 9.6 ± 1.2 | 12.3 ± 2.6 | 0.5 ± 0.4 | 298.6 ± 21.2 | 278.3 ± 9.1 | – | – | – | – | – | – | –
6 | CC(C)=CCCC(C)(O)C1CCC2(C)C1C(O)CC1C3(C)CCC(O)C(C)(C)C3C(OC3OC(CO)C(O)C(O)C3OC3OC(CO)C(O)C(O)C3O)CC12C (centres unmarked) [Rf] | – | – | – | – | – | – | – | – | – | – | 18.8 ± 2.6 | 7.4 ± 1.3 | 7.5 ± 1.5 | 17.6 ± 5.9 | 6.5 ± 1.2 | 6.6 ± 1.2 | Tmax ([1]; in vivo, T Max): 2 ± 0.6 h
7 | CC(C)=CCCC(C)(O)C1CCC2(C)C1C(O)CC1C3(C)CCC(OC4OC(CO)C(O)C(O)C4OC4OC(CO)C(O)C(O)C4O)C(C)(C)C3CCC12C (centres unmarked) [Rg3] | – | – | – | – | – | – | – | – | – | – | 32.3 ± 4.6 | 22.5 ± 2.1 | 19.8 ± 1.5 | 29.6 ± 5.9 | 24.3 ± 1.2 | 21.3 ± 2.2 | –
8 | CC(C)=CCC=C(C)C1CCC2(C)C1C(O)CC1C3(C)CCC(OC4OC(CO)C(O)C(O)C4OC4OC(CO)C(O)C(O)C4O)C(C)(C)C3CCC12C (centres unmarked) [Rg5] | 37.3 ± 2.8 | 25.6 ± 2.6 | 27.3 ± 3.6 | 8 ± 1.6 | 34.4 ± 2.6 | 22.2 ± 1.4 | 17.1 ± 2.5 | 4 ± 1.8 | 569.8 ± 10.2 | 415.6 ± 20.1 | – | – | – | – | – | – | –
9 | CC(C)=CCCC(C)(O)C1CCC2(C)C1C(O)CC1C3(C)CCC(O)C(C)(C)C3C(OC3OC(CO)C(O)C(O)C3O)CC12C (centres unmarked) [Rh1] | – | – | – | – | – | – | – | – | 278.6 ± 12.8 | 215.5 ± 12.1 | – | – | – | – | – | – | Cmax [1, 13]: 46.9 ± 7.8 ng/g; MRT [1, 14]: 11.2 ± 2 h; half-life [1, 15]: 8.9 ± 2.1 h; Tmax [1, 16]: 1.5 ± 0.3 h; Cmax [1, 17]: 41.2 ± 4.6 ng/g; MRT [1, 18]: 9.6 ± 2.1 h; half-life [1, 19]: 9.8 ± 2.5 h; Tmax [1, 20]: 1 ± 0.5 h
10 | CC(C)=CCCC(C)(O)C1CCC2(C)C1C(O)CC1C3(C)CCC(OC4OC(CO)C(O)C(O)C4O)C(C)(C)C3CCC12C (centres unmarked) [Rh2] | – | – | – | – | – | – | – | – | 369.8 ± 8.0 | 356.8 ± 12.8 | – | – | – | – | – | – | Cmax [1, 13]: 30.2 ± 4.8 ng/g; MRT [1, 14]: 11.8 ± 2 h; half-life [1, 15]: 7.6 ± 2.1 h; Tmax [1, 16]: 2 ± 0.3 h; Cmax [1, 17]: 26.9 ± 2.6 ng/g; MRT [1, 18]: 12.3 ± 2.1 h; half-life [1, 19]: 9.8 ± 2.5 h; Tmax [1, 20]: 2 ± 0.5 h
11 | CC(C)=CCC=C(C)C1CCC2(C)C1C(O)CC1C3(C)CCC(OC4OC(CO)C(O)C(O)C4O)C(C)(C)C3CCC12C (centres unmarked) [Rh3] | – | – | – | – | – | – | – | – | – | – | 37.6 ± 4.8 | 19.8 ± 2.8 | 13.6 ± 3.1 | 24.3 ± 3.9 | 15.6 ± 3.5 | 12.6 ± 3.2 | T Max ([1]; in vivo): 10.2 ± 1.5 h; Tmax ([1]; in vivo, T Max): 14.4 ± 1.2 h
12 | CC(C)=CCC=C(C)C1CCC2(C)C1C(O)CC1C3(C)CCC(O)C(C)(C)C3C(OC3OC(CO)C(O)C(O)C3O)CC12C (centres unmarked) [Rh4] | – | – | – | – | – | – | – | – | – | – | 38.7 ± 4.8 | 12.3 ± 2.0 | 9.9 ± 2.1 | 35.6 ± 3.6 | 11.2 ± 2.1 | 8.8 ± 1.5 | Tmax ([1]; in vivo, T Max): 4 ± 0.5 h
13 | C=C(CCC=C(C)C)C1CCC2(C)C1C(O)CC1C3(C)CCC(OC4OC(CO)C(O)C(O)C4OC4OC(CO)C(O)C(O)C4O)C(C)(C)C3CCC12C (centres unmarked) [Rk1] | 50.1 ± 3.7 | 26.8 ± 2.5 | 29.3 ± 2.1 | 6 ± 0.8 | 32.1 ± 5.9 | 21.3 ± 1.8 | 18.1 ± 9.8 | 6 ± 0.9 | 736.8 ± 17.7 | 556.8 ± 13.4 | – | – | – | – | – | – | –
14 | C=C(CCC=C(C)C)C1CCC2(C)C1C(O)CC1C3(C)CCC(O)C(C)(C)C3C(OC3OC(CO)C(O)C(O)C3O)CC12C (centres unmarked) [Rk3] | – | – | – | – | – | – | – | – | – | – | 16.6 ± 2.8 | 8.9 ± 1.8 | 6.9 ± 2.1 | 14.2 ± 3.9 | 9.6 ± 1.5 | 6.5 ± 0.9 | T Max ([1]; in vivo): 1.5 ± 0.5 h; Tmax ([1]; in vivo, T Max): 1 ± 0.2 h
